This note sets out measurements from patent publication US10117837B2, “Methods of preparing stimuli-responsive multifunctional nanoparticles” (priority 2017, dated 2018).

Series [1] concerns OVCAR-3/luc orthotopic ovarian tumor. As to the kind of experiment: Anti-tumor effect in orthotopic ovarian tumor xenograft model, ROI size by bioluminescence imaging. It counts as in vivo, nude mice. To be noted: day 20, dose equivalent to 5 mg/kg of DOX via tail vein. The source says:
The orthotopic human ovarian cancer xenograft model was established using 6-8 week old female athymic nude mice purchased from National Laboratory Animal Center (Taipei, Taiwan). All mouse procedures were approved by the Institutional Animal Care and Use Committee (IACUC) of National Tsing Hua University. Prior to surgery, the mouse was laid dorsal side up under anesthetic. The incision was made left or right of the midline and directly above the ovarian fat pad. The ovarian fat pad was gently pulled out and rested onto a sterile saline soaked gauze pad. Under a dissecting microscope, the ovary was allowed for the insertion of a 30 gauge needle into the bursa. Suspension (1×10^6) of OVCAR-3/luc cells in a maximum volume of […] was slowly injected between the bursa and the ovary. […]
Growth of tumor was monitored by bioluminescence imaging (BLI) using in vivo imaging system (Caliper Life Sciences). […] Prior to being monitored, the tumor-implanted mice were injected intraperitoneally with 150 mg/kg of D-luciferin substrate. The Regions of Interest (ROIs) in tumor area were selected and used for quantification of tumor size by the software provided by the Caliper Life Sciences. Volumes or sizes of ROIs were calculated as L×W^2/2, where L was the largest and W was the smallest diameter of each ROI. […]

For series [2], the system named is OVCAR-3 cells. The experiment in a line: Cell viability (MTS assay) in OVCAR-3 cells. To be noted: OVCAR-3, 48 hours, various concentrations. It counts as cell-based, human. As for the experimental part:
(§1) The cytotoxicity and anticancer effect of the stimuli-responsive multifunctional nanoparticle of the present invention was evaluated by cell viability assay in NIH3T3 and OVCAR-3 cells. The cells were seeded in a 96-well plate at a density of 5×10^3 cells/well and incubated at 37° C. for 24 hours. Next, DOX.HCl, the HA-cys-ADOX nanoparticles, or the LHRH-HA-cys-ADOX nanoparticles dissolved in DMEM at predetermined concentrations equivalent to DOX was added to the cells. Cells treated with DMEM were the negative control group. After incubation at 37° C. for 48 hours, the cells were washed with PBS (pH 7.4). Cell viability was measured by MTS assay (CellTiter 96® AQueous One Solution Cell Proliferation Assay (Promega, USA)) according to the manufacturer's instructions and calculated as the ratio of light absorbance at […] of the experimental group to that of the negative control group.
(In general: Tetrazolium dyes change colour on reduction, which living cells bring about.)

Series [3] has as its system OVCAR-3/luc orthotopic ovarian tumor. The experiment in a line: TUNEL staining of ovarian tumor sections. The class given is in vivo, nude mice. As to conditions: after 20 days of treatment. As for the experimental part: (§2) Tumors and normal ovaries from mice with different treatments were collected for histological assay after mice were sacrificed. […] paraffin tissue sections were prepared for analysis. Morphology of tumors and normal ovaries were examined by haematoxylin and eosin (H&E) staining. TUNEL staining were used for the live/dead assay in the tissue sections using DeadEnd™ Fluorometric TUNEL System (Promega, USA). Tissue sections were examined at magnification of 400× using fluorescent microscope (Zeiss, Germany).
(§3) The therapeutic effect of the stimuli-responsive multifunctional nanoparticle of the present invention on ovarian cancer cells was further analyzed histologically after the mice were treated differently as mentioned above for 20 days and sacrificed.

The test system of another series is NIH3T3 cells. As to the kind of experiment: Cell viability (MTS assay) in NIH3T3 cells. To be noted: NIH3T3, 48 hours, various concentrations. It counts as cell-based, mouse. How it is done:
as §1

Series [4] concerns OVCAR-3/luc orthotopic ovarian tumor. As to the kind of experiment: H&E staining of ovarian tumor sections. The class given is in vivo, nude mice. To be noted: after 20 days of treatment. How it is done:
as §2, §3

Series [5] deals with OVCAR-3 cells. The experiment in a line: Cellular uptake by fluorescence microscopy in OVCAR-3 cells. The class given is cell-based, human. To be noted: 4 hours, equivalent to 50 mg/mL DOX. How it is done: The cellular uptake of the stimuli-responsive multifunctional nanoparticle of the present invention and the intracellular drug delivery were investigated by fluorescence microscopy. Human ovarian cancer cells OVCAR-3 and mouse embryonic fibroblasts NIH3T3 were cultured to 70-80% confluence and seeded onto 4-well chamber slides (BD Falcon, USA) at a density of 1×10^5 cells/well. After incubation at 37° C. for 24 hours, DOX.HCl, the HA-cys-ADOX nanoparticles (referred to as HA NPs), or the LHRH-HA-cys-ADOX nanoparticles (referred to as LHRH NPs) dissolved in DMEM at concentrations equivalent to 50 mg/mL DOX was added to the cells for a 2-hour incubation at 37° C. Cells treated with DMEM were the negative control group (NC). Next, fluorescent dyes Lysotracker Green and DAPI in DMEM were sequentially added to the abovementioned cells to stain endosome/lysosome for 2 hours and nuclei for 1 hour. After all the reagents were removed, the cells were washed with PBS (pH 7.4) three times, followed by addition of a mounting medium to fix the cells and prevent fluorescence fading. Cells were examined using a fluorescent microscope (Zeiss, Germany).

For the compound `COc1cccc2c1C(=O)c1c(O)c3c(c(O)c1C2=O)C[C@@](O)(C(=O)CO)C[C@@H]3O[C@H]1C[C@H](N)[C@H](O)[C@H](C)O1.Cl` [free DOX, doxorubicin hydrochloride], the “ROI size relative to that of the LHRH-NPs/Cy5.5-treated mice” value in series [1] is reported as 4.3 fold. The “cytotoxicity / anticancer effect” value in the series with OVCAR-3 cells [2] was “dose-dependent”. The “TUNEL fluorescence signal (apoptotic cells) in tumors” value in series [3] is “no significant TUNEL fluorescence signal”. In addition, the cytotoxicity entry in the series with NIH3T3 cells is given as “dose-dependent”. Also, in series [4], the “tumor cell morphology (H&E staining)” value is reported as “cell proliferation with dense nuclei in random pattern”. Also, the “difference in intensity of intracellular DOX fluorescence between OVCAR-3 and NIH3T3 cells” value with OVCAR-3 cells [5] is reported as “no difference”.
